Assay: xn = mol fraction of the nth substance listed
Conditions: 101 kPa, Liquid, Small sample (50 mg) DSC

CC(O)CO (centres undefined) [1,2-propanediol] + O
excess molar heat capacity [J/K/mol]
Conditions	283.15 K	293.15 K	298.15 K	303.15 K	313.15 K
x1 = 0.02216	1.78	2.01	1.98	1.95	1.84
x1 = 0.05617	3.3	3.57	3.62	3.63	3.59
x1 = 0.07845	4.67	5.18	5.29	5.35	5.39
x1 = 0.1224	5.38	6.18	6.43	6.6	6.81
x1 = 0.1545	5.22	6.19	6.5	6.73	6.96
x1 = 0.1667	4.94	6.02	6.37	6.62	6.95
x1 = 0.1873	4.62	5.79	6.18	6.49	6.9
x1 = 0.2272	4.15	5.41	5.86	6.21	6.72
x1 = 0.2878	2.67	4.01	4.52	4.94	5.62
x1 = 0.3965	1.6	3.11	3.65	4.08	4.77
x1 = 0.4863	0.67	1.88	2.34	2.75	3.53
x1 = 0.5274	0.69	1.74	2.17	2.58	3.35
x1 = 0.6388	0.77	1.63	1.97	2.3	3.01
x1 = 0.753	0.72	1.32	1.55	1.76	2.18
x1 = 0.7757	0.8	1.04	1.24	1.47	1.96
x1 = 0.9045	0.26	0.38	0.11	0.14	0.32
x1 = 0.9677	0.09	–	–	–	–

OCCCO [propan-1,3-diol] + O
excess molar heat capacity [J/K/mol]
Conditions	283.15 K	293.15 K	298.15 K	303.15 K	313.15 K
x1 = 0.02483	1.28	1.4	1.43	1.44	1.46
x1 = 0.03693	1.89	2.08	2.13	2.16	2.26
x1 = 0.05016	2.35	2.72	2.83	2.9	2.99
x1 = 0.07515	2.54	3.22	3.44	3.59	3.8
x1 = 0.1401	2.24	3.61	4.11	4.52	5.08
x1 = 0.1504	2.2	3.67	4.21	4.64	5.27
x1 = 0.299	1.59	3.18	3.84	4.43	5.44
x1 = 0.3982	1.31	2.66	3.28	3.85	4.81
x1 = 0.4976	1.26	2.34	2.82	3.25	4.02
x1 = 0.5955	1.15	1.92	2.33	2.74	3.48
x1 = 0.7025	–	1.71	1.95	2.2	2.64
x1 = 0.7902	0.98	1.19	1.3	1.4	1.49
x1 = 0.9455	0.48	0.53	0.58	0.61	0.55

OCCCCO [1,4-butanediol] + O
excess molar heat capacity [J/K/mol]
Conditions	283.15 K	293.15 K	298.15 K	303.15 K	313.15 K
x1 = 0.00538	1.24	1.14	1.06	1.01	1.1
x1 = 0.01312	2.19	2.16	2.08	2.01	1.92
x1 = 0.02505	3.41	3.49	3.5	3.52	3.58
x1 = 0.02518	3.17	3.34	3.32	3.28	3.33
x1 = 0.03528	4.45	4.6	4.58	4.53	4.52
x1 = 0.04842	5.39	5.61	5.64	5.65	5.67
x1 = 0.0574	6.22	6.53	6.59	6.62	6.68
x1 = 0.07589	6.43	7.15	7.34	7.46	7.6
x1 = 0.08236	6.7	7.51	7.71	7.85	8.09
x1 = 0.09032	6.66	7.65	7.89	8.04	8.25
x1 = 0.1005	6.94	8.03	8.38	8.63	8.9
x1 = 0.1396	6.87	8.33	8.81	9.17	9.74
x1 = 0.1403	6.85	8.37	8.87	9.24	9.77
x1 = 0.1868	6.33	8.24	9.84	10.39	11.21
x1 = 0.2961	5.63	7.75	8.91	9.42	10.66
x1 = 0.3972	4.75	6.83	7.7	–	10.31
x1 = 0.4965	4.04	5.92	6.8	7.63	9.13
x1 = 0.5659	3.29	5.08	5.88	6.64	8.11
x1 = 0.7004	2.95	4.32	4.96	5.57	6.8
x1 = 0.7964	2.92	3.47	3.89	4.33	5.14
x1 = 0.8873	1.38	2.21	2.5	2.79	3.63
x1 = 0.9398	0.81	1.14	1.34	1.56	2.03

Reference: the NIST ThermoML archive (doi:10.1016/j.fluid.2013.06.041)
